Patent US20120088800A1, “2-(SUBSTITUTED) (ARYLMETHYL, ARYLOXY and ARYLTHIO))-N-(SUBSTITUTED PYRIDIN-2-YL)-2-(SUBSTITUTED ARYL) COMPOUNDS AS SUBTYPE-SELECTIVE MODULATORS OF SPHINGOSINE-1-PHOSPHATE-3 (S1P3) RECEPTORS” (ALLERGAN, INC., priority 2009, published 2012)
Structures can show the parent of a compound that is named as a salt.

Tests used:
S1P2 = biological target: T1, S1P2 (Homo sapiens, UniProt O95136); assay: FLIPR calcium assay, cells expressing S1P2 and a G-protein; type: cell-based; details: fluo-4 calcium signal compared to sphingosine 1-phosphate
T1 construct: expressed in transfected cells
Description: (§1) Novel compounds having this general structure were synthesized and tested for sphingosine 1-phosphate receptor (S1P) activity using the FLIPR assay. Cells expressing the receptor of interest (S1P1, S1P2 or S1P3) and a G-protein (Gqi5 or G16) are loaded with fluo-4, a calcium sensitive dye. After removal of excess dye by washing, the cells are placed in the FLIPR TETRA instrument. Baseline fluorescence readings are taken prior to addition the compound to be tested. Agonists will trigger the receptor to interact with the G-protein, leading to an increase in intracellular calcium. The increase in intracellular calcium causes an increase in the fluorescence of the cells, due to the presence of fluo-4. This fluorescence increase is recorded by the FLIPR TETRA. After the calcium transient signal has decreased towards baseline, the standard agonist sphingosine 1-phosphate is added. If the test compound is an antagonist, an initial calcium signal will not be generated and the antagonist will prevent the generation of a calcium signal from sphingosine 1-phosphate. The level of fluorescence is compared to that of sphingosine 1-phosphate, and the EC50 or IC50 of the compound determined by curve fitting.

S1P1 = biological target: T2, S1P1 (Homo sapiens, UniProt P21453); assay: FLIPR calcium assay, cells expressing S1P1 and a G-protein; type: cell-based; details: fluo-4 calcium signal compared to sphingosine 1-phosphate
T2 construct: expressed in transfected cells
Description: as §1

S1P3 = biological target: T3, S1P3 (Homo sapiens, UniProt Q99500); assay: FLIPR calcium assay, cells expressing S1P3 and a G-protein; type: cell-based; details: for EC50: fluo-4 calcium signal compared to sphingosine 1-phosphate, antagonist mode; for FLIPR (% Antagonism) S1P3: value in parentheses below the EC50, antagonism of sphingosine 1-phosphate signal
T3 construct: expressed in transfected cells
Description: as §1

perfused porcine eyes = details: IOVS 45, 2263, 2004; cited from earlier work

T3 sequence (Q99500 whole entry, species assumed): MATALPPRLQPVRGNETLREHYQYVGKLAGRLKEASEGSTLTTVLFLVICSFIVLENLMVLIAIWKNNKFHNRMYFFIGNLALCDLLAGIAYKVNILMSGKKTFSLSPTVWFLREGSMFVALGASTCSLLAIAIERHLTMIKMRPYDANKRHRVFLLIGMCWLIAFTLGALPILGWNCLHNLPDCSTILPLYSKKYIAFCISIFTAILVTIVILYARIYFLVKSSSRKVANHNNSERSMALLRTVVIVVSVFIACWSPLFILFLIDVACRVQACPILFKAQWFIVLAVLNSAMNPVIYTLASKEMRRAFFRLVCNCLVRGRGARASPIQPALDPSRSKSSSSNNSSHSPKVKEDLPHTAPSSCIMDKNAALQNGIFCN
T1 sequence (O95136 whole entry, species assumed): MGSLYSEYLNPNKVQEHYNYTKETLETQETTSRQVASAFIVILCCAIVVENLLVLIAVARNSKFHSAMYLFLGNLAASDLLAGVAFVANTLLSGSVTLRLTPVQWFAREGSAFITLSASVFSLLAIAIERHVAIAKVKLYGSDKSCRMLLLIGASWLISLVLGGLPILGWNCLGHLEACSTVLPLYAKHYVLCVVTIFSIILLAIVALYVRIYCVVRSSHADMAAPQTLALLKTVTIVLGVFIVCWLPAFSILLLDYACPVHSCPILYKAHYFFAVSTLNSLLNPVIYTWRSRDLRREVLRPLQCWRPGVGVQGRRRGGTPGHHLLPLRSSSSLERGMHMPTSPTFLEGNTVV
T2 sequence (P21453 whole entry, species assumed): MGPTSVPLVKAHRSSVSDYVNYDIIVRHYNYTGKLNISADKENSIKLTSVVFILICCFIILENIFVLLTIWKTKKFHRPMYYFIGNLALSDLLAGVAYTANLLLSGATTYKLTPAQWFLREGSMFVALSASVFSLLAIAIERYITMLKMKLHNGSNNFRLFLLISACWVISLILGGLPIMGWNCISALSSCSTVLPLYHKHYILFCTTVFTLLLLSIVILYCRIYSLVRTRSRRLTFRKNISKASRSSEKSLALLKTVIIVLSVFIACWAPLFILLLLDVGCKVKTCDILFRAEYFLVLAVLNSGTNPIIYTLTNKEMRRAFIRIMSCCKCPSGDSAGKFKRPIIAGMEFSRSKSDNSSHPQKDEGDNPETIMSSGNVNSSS

In the case of `O=C(Nc1ccc(Cl)cn1)C(Cc1ccccc1)c1ccccc1` (stereo not shown) [Example 29, N-(5-chloropyridin-2-yl)-2,3-diphenylpropanamide hydrochloride], the EC50 (S1P2) is reported as greater than 8300 nM, the EC50 (S1P1) is reported as greater than 8300 nM and the EC50 (S1P3) is reported as 198 nM. The “FLIPR (% Antagonism) S1P3” value (S1P3) was “(101) %”.
With `O=C(Nc1ccc(Br)cn1)C(Cc1ccccc1)c1ccccc1` (stereo not shown) [Example 30, N-(5-bromopyridin-2-yl)-2,3-diphenylpropanamide hydrochloride] the EC50 (S1P2) was greater than 8300 nM, the EC50 (S1P1) was greater than 8300 nM and the EC50 (S1P3) was 162 nM. For the same molecule, the “FLIPR (% Antagonism) S1P3” value (S1P3) was “(100) %”.
Work on `Cc1nc(NC(=O)C(Cc2ccccc2)c2ccccc2)ccc1Br` (stereo not shown) [Example 31, N-(5-bromo-6-methylpyridin-2-yl)-2,3-diphenylpropanamide hydrochloride] yielded an EC50 (S1P2) greater than 8300 nM, an EC50 (S1P1) greater than 8300 nM and an EC50 (S1P3) of 201 nM. For the same molecule, the “FLIPR (% Antagonism) S1P3” value (S1P3) was “(100) %”.
With `Cc1ccc(NC(=O)C(Cc2ccccc2)c2ccccc2)nc1` (stereo not shown) [Example 32, N-(5-methylpyridin-2-yl)-2,3-diphenylpropanamide hydrochloride] the EC50 (S1P2) was greater than 8300 nM, the EC50 (S1P1) was greater than 8300 nM and the EC50 (S1P3) was 725 nM. The “FLIPR (% Antagonism) S1P3” value (S1P3) was “(99) %”.
`O=C(Nc1ccc(Br)cn1)C(c1ccc(Cl)cc1)c1ccc(Cl)cc1` [Example 33, N-(5-bromopyridin-2-yl)-2,2-bis(4-chlorophenyl)acetamide] gave an EC50 (S1P2) greater than 8300 nM, an EC50 (S1P1) greater than 8300 nM and an EC50 (S1P3) of 1720 nM. For the same molecule, the “FLIPR (% Antagonism) S1P3” value (S1P3) was “(94) %”.
Work on `N#Cc1ccc(NC(=O)C(Cc2ccccc2)c2ccccc2)nc1` (stereo not shown) [Example 34, N-(5-cyanopyridin-2-yl)-2,3-diphenylpropanamide hydrochloride] yielded an EC50 (S1P2) greater than 8300 nM, an EC50 (S1P1) greater than 8300 nM and an EC50 (S1P3) of 1500 nM. The “FLIPR (% Antagonism) S1P3” value (S1P3) was “(52) %”.
For `CCCCCCCCCCCCC/C=C/[C@@H](O)[C@@H](N)COP(=O)(O)O` [Example S1P, sphingosine 1-phosphate], the “decrease of outflow facility” value (perfused porcine eyes) is given as greater than 30%.
